Measurements published in US9328397B2, “Removal of arsenic using a dissimilatory arsenic reductase” (UNIWERSYTET WARSZAWSKI, priority 2013, dated 2016).

How the values were obtained:
[1] = test system: Shewanella sp. O23S strain; experiment: Dissimilatory reduction of 2.5 mM sodium arsenate in the presence of heavy metals; format: cell-based; settings: minimal R1-R2 medium; for Reduction of arsenic in the presence of the metal (maximum concentration of metals allowing for dissimilatory reduction of 2.5 mM sodium arsenate): 5 mM sodium lactate
[2] = test system: Shewanella sp. O23S strain; experiment: Minimal inhibitory concentration (MIC) of heavy metals in LB medium; format: cell-based; settings: 24 hours at 22° C., OD600

SMILES	Reduction of arsenic in the presence of the metal (maximum concentration of metals allowing for dissimilatory reduction of 2.5 mM sodium arsenate) [1] [mM]	MIC value [2] [mM]	capability of dissimilatory reduction in the presence of the metal [1]
O.O.O.O.O.O.O.O.O=S(=O)([O-])[O-].[Cd+2] [Cd(II), CdSO4•8H2O]	1	1	–
O.O.O.O.O.O.O.O=S(=O)([O-])[O-].[Co+2] [Co(II), CoSO4•7H2O]	2	2	–
O.O.O.O.O.O.O.O.O.O.O.O.O.O.O.O.O.O.O=S(=O)([O-])[O-].O=S(=O)([O-])[O-].O=S(=O)([O-])[O-].[Cr+3].[Cr+3] [Cr(III), Cr2(SO4)3•18H2O]	3	5	–
O.O.O.O.O.O=S(=O)([O-])[O-].[Cu+2] [Cu(II), CuSO4•5H2O]	2	3	–
[Fe+3] [Fe(III)]	–	5	not demonstrated
O.O=S(=O)([O-])[O-].[Mn+2] [Mn(II), MnSO4•H2O]	>5	>20	–
O.O.O.O.O.O.O.O.O.O.O=[Se](=O)([O-])[O-].[Na+].[Na+] [Se(VI), Na2SeO4•10H2O]	5	>20	–
[Na+].[O]=[V](=[O])[O-] [V(V), NaVO3]	>5	>20	–
O.O.O.O.O.O.O.O=S(=O)([O-])[O-].[Zn+2] [Zn(II), ZnSO4•7H20]	2	3	–
